Where “and” joins values, the source holds several entries; their conditions need not be identical. Identical values can stand only once.
Columns and labels:
[1] = system: mMCH-1R-EGFP; assay: cAMP flashplate assay of stable CHO cell clones; format: cell-based, mouse; settings: human MCH, 15 minutes at 37° C., 10 μM forskolin; individual stable CHO clones; FIG. 2
Source text: FIG. 2 illustrates a cAMP flashplate assay of CHO cell clones stably expressing mMCH-1R-EGFP. […] Cells were then lysed and assayed for bound [^125I]cAMP.
(§1) Wild-type CHO cells were transfected using SuperFect (Qiag.en) and either mouse MCH-1R-EGFP or human short/mouse species chimeric MCH-1R-EGFP. Forty-eight hours after transfection, transfected cells were subjected to positive selection for approximately ten days in media containing G418. Following selection, MCH-1R-EGFP expressing CHO cells were bulk sorted by Fluorescence Assisted Cell Sorting (FACS) for one or two rounds on the basis of fluorescence intensity to increase the population of cells expressing EGFP. Following bulk sorts, individual clones of varying fluorescence intensities were isolated by FACS and expanded.
The functional activity of these clones was evaluated with the cAMP Flashplate Assay (FIGS. 2 and 3).

[2] = system: mouse MCH-1R-EGFP; assay: SPA-based Binding Assay, CHO cell membranes, [125I]Phe13Tyr19-MCH; settings: displacement of [125I]Phe13Tyr19-MCH, stable CHO cell membranes
Source text: as §1
Fluorometric Microvolume Assay Technology (FMAT) was initially employed to screen a large number of stable clones by whole cell binding with a fluorescently labeled MCH derivative (SymJz-MCH, PE Biosystems) to identify those clones with good specific binding windows.

[3] = target: T1, HuLong/mMCH1R-1-EGFP (human long form/mouse species chimeric MCH1R-1-EGFP) (Homo sapiens, UniProt Q99705, A336T/R230K/V159M); assay: cAMP production (FlashPlate), transiently transfected CHO cells stimulated with human MCH; format: cell-based; settings: HuLong/mMCH1R-1-EGFP vs wild-type human MCH1R long form; transient CHO
T1 construct: ID; NO; 14 (human long form/mouse species chimeric MCH1R-linker-EGFP); 12 amino acid linker […]; expressed in transfected cells; host or cells: CHO (transient) and HEK293 Aequorin (transient)
Experimental: Both HEK293 Aequorin (National Institutes of Health) and CHO mammalian cell lines were transiently transfected with the various MCH1R/GFP variant fusion constructs, as well as the appropriate control constructs. Transfection was performed using Lipofectamine 2000 (Gibco BRL) per the manufacturer recommended protocol. […] Aequorin bioluminescence is a representative measure of intracellular Ca^2+ mobilization. cAMP production was measured with the Adenylyl Cyclase Activation FlashPlate Assay (NEN Life Science Products, Inc.).

human MCH
EC50 [1]: 0.111 nM and 0.126 nM and 0.129 nM and 0.23 nM | IC50 with MCH compared with wild-type human short isoform [2]: indistinguishable | EC50 fold higher than that of corresponding wild-type control [3]: approximately 7.5 fold

From US7029878B2, “Melanin concentrating hormone receptor chimeric and fusion proteins” (Merck & Co., Inc., priority 2000, dated 2006)
